In PMC6024615, “Effect of Biliary Drainage on the Toxicity and Toxicokinetics of Amanita exitialis in Beagles” (Toxins, 2018):

Experiments:
[1] = Peptide toxins in the blood / toxicokinetics in beagles with biliary drainage; format: in vivo, beagle dogs; parameters: Dose normalized AUC (0–∞) / Dose normalized Cmax: unit not given here; details: for T1/2: UPLC-ESI-MS/MS
Description: (§1) The study was approved by National Institute of Occupational Health and Poison Control review board for animal experiments. Twenty-four male beagles (age, 8–10 months; weight, 10 ± 1 kg) were obtained from Beijing Institute of Xieerxin Biology Resource (Beijing, China). They were randomly divided into four groups of six animals each: control, biliary drainage, and 20 and 60 mg/kg with biliary drainage groups. The biliary drainage operation was conducted in all groups barring the control group. The dogs were dressed in homemade underwear, coats, and Elizabeth circles for a week to ensure pre-experimental acclimatization (Figure S8a–c). After determining the baseline values for biochemical indicators, the dogs were fasted for 24 h but received water ad libitum. They were anesthetized by intravenous administration of pentobarbital sodium (3%, 1 mL/kg) during the surgery. A temperature of 38–39 °C was maintained with a warming mat. After skin preservation and sterilization, the abdominal cavity was opened through the central abdomen. The abdomen was explored and blunt dissection of the common bile duct was performed (Figure S8d). The common bile duct and its branches were ligated from the intestinal side. A 7.0-Fr drainage catheter (COOK, Bloomington, IN, USA) was percutaneously inserted into the gallbladder, and a medical drainage bag was connected to the drainage catheter coming out of the abdominal cavity. Each opened layer, including the peritoneum, abdominal wall muscle, and skin, was closed with suture. The operative incision was protected with sterile gauze and a bandage, and the dogs were dressed in homemade underwear, coats, and Elizabeth circles. The drainage bag was placed in the pocket of the coat (Figure S8e). After the anesthetic wore off, the dogs were placed in cages, and food and water were provided ad libitum. The operative incision was sterilized with iodophor twice a day until stitches were removed six days after surgery. The drainage bag was replaced every day. On the eighth day after surgery, the 20 and 60 mg/kg with biliary drainage groups were orally administered a lyophilized powder of Amanita exitialis in starch capsules. In control and bile drainage group, the beagle dogs were fed with empty capsules. Immediately after dosing, the animals were placed in their cages, and food and water were provided ad libitum. Dogs were sacrificed with an overdose of sodium pentobarbital at the end of the experiment. All procedures were performed according to the ethical standards of the National Institutes of Health Guide for Animal Welfare and approved by the Institutional Animal Care and Use Committee (EAWE-2017-005).
(§2) Peptide toxins in blood and urine samples were analyzed as described previously. Bile samples from Days 0–1, Days 1–2, Days 2–3, and Days 3–4 were collected and stored in medical drainage bags and the bile volume was recorded. Plasma and urine samples were stored at 2–8 °C until analysis for peptide toxins.
(§3) UPLC and MS/MS parameters were as described in our previous study. The limit of detection and limit of quantitation of each toxin in the bile were 0.03 mg/kg and 0.5 mg/kg, respectively.
Toxicokinetic parameters were described in our previous study. Measurement data are reported as mean ± standard deviation values and enumeration data are reported as percentage (%). […] SPSS 22.0 (IBM Corporation, Armonk, NY, USA, 2015) was used for statistical analysis. The criterion for statistical significance was p ≤ 0.05. Except for the biliary drainage operation, the animals and methods in our present study are in accordance with our previously published study. Thus, by directly comparing the data from this study with those from our published studies on Amanita exitialis-exposed beagles without biliary drainage, we can evaluate the impact of biliary drainage on the toxicity and toxicokinetics of Amanita exitialis in beagles.

[2] = Peptide toxins in the urine of beagles with biliary drainage; format: in vivo, beagle dogs; details: for Total (accumulated) amount excreted in urine / percentage of total urine excretion, Total: 0–4 days
Description: as §1, §2, §3

[3] = 20 mg/kg Amanita exitialis oral, biliary drainage, plasma, mean ± SD
[4] = 60 mg/kg Amanita exitialis oral, biliary drainage, plasma, mean ± SD
[5] = 20 mg/kg with biliary drainage group
[6] = 60 mg/kg with biliary drainage group
[7] = 1–2 days, 20 mg/kg with biliary drainage group
[8] = 1–2 days, 60 mg/kg with biliary drainage group
[9] = 2–3 days, 20 mg/kg with biliary drainage group
[10] = 2–3 days, 60 mg/kg with biliary drainage group
[11] = 3-4d, 20 mg/kg with biliary drainage group
[12] = 3-4d, 60 mg/kg with biliary drainage group
[13] = 3–4 days, 20 mg/kg with biliary drainage group
[14] = 3–4 days, 60 mg/kg with biliary drainage group

CC[C@H](C)[C@@H]1NC(=O)CNC(=O)[C@@H]2Cc3c([nH]c4cc(O)ccc34)[S@+]([O-])C[C@H](NC(=O)CNC1=O)C(=O)N[C@@H](CC(N)=O)C(=O)N1C[C@H](O)C[C@H]1C(=O)N[C@@H]([C@@H](C)[C@@H](O)CO)C(=O)N2 [α-amanitin]
detection rate of peptide toxins in blood ([1]; 0 h after ingestion, 60 mg/kg with biliary drainage group): 0%
T1/2 [1, 3]: 1.08 ± 0.76 h
AUC (0–∞) [1, 3]: 5.36 ± 3.17 µg·h/L
CL/F [1, 3]: 14.2 ± 7.17 mL/min/kg
Cmax [1, 3]: 1.73 ± 0.58 µg/L
Dose normalized AUC (0–∞) [1, 3]: 138.9 ± 82.1
Dose normalized Cmax [1, 3]: 44 ± 15.1
MRT (0–∞) [1, 3]: 3.55 ± 0.8 h
Tmax [1, 3]: 1.38 ± 0.48 h
Vz/F [1, 3]: 1.07 ± 0.31 L/kg
T1/2 [1, 4]: 1.2 ± 0.58 h
AUC (0–∞) [1, 4]: 31.99 ± 9.65 ^a,* µg/L × h
CL/F [1, 4]: 6 ± 1.83 mL/min/kg
Cmax [1, 4]: 12.25 ± 3.54 ^a,* µg/L
Dose normalized AUC (0–∞) [1, 4]: 238.2 ± 83.9
Dose normalized Cmax [1, 4]: 86.1 ± 30.8
MRT (0–∞) [1, 4]: 2.87 ± 0.43 h
Tmax [1, 4]: 1.13 ± 0.25 h
detection rate of peptide toxins in blood ([1]; 0.25 h after ingestion, 20 mg/kg with biliary drainage group): 0%
detection rate of peptide toxins in blood ([1]; 0.25 h after ingestion, 60 mg/kg with biliary drainage group): 0%
detection rate of peptide toxins in blood ([1]; 0.5 h after ingestion, 20 mg/kg with biliary drainage group): 33%
detection rate of peptide toxins in blood ([1]; 0.5 h after ingestion, 60 mg/kg with biliary drainage group): 33%
detection rate of peptide toxins in blood ([1]; 1 h after ingestion, 20 mg/kg with biliary drainage group): 100%
detection rate of peptide toxins in blood ([1]; 1 h after ingestion, 60 mg/kg with biliary drainage group): 100%
detection rate of peptide toxins in blood ([1]; 1.5 h after ingestion, 20 mg/kg with biliary drainage group): 100%
detection rate of peptide toxins in blood ([1]; 1.5 h after ingestion, 60 mg/kg with biliary drainage group): 100%
detection rate of peptide toxins in blood ([1]; 2 h after ingestion, 20 mg/kg with biliary drainage group): 100%
detection rate of peptide toxins in blood ([1]; 2 h after ingestion, 60 mg/kg with biliary drainage group): 100%
detection rate of peptide toxins in blood ([1]; 3 h after ingestion, 20 mg/kg with biliary drainage group): 100%
detection rate of peptide toxins in blood ([1]; 3 h after ingestion, 60 mg/kg with biliary drainage group): 100%
detection rate of peptide toxins in blood ([1]; 4 h after ingestion, 20 mg/kg with biliary drainage group): 100%
detection rate of peptide toxins in blood ([1]; 4 h after ingestion, 60 mg/kg with biliary drainage group): 100%
detection rate of peptide toxins in blood ([1]; 5 h after ingestion, 20 mg/kg with biliary drainage group): 100%
detection rate of peptide toxins in blood ([1]; 5 h after ingestion, 60 mg/kg with biliary drainage group): 100%
detection rate of peptide toxins in blood ([1]; 6 h after ingestion, 20 mg/kg with biliary drainage group): 100%
detection rate of peptide toxins in blood ([1]; 6 h after ingestion, 60 mg/kg with biliary drainage group): 100%
detection rate of peptide toxins in blood ([1]; 8 h after ingestion, 20 mg/kg with biliary drainage group): 50%
detection rate of peptide toxins in blood ([1]; 8 h after ingestion, 60 mg/kg with biliary drainage group): 50%
detection rate of peptide toxins in blood ([1]; 10 h after ingestion, 20 mg/kg with biliary drainage group): 50%
detection rate of peptide toxins in blood ([1]; 10 h after ingestion, 60 mg/kg with biliary drainage group): 50%
detection rate of peptide toxins in blood ([1]; 12 h after ingestion, 20 mg/kg with biliary drainage group): 17%
detection rate of peptide toxins in blood ([1]; 12 h after ingestion, 60 mg/kg with biliary drainage group): 33%
detection rate of peptide toxins in blood ([1]; 24 h after ingestion, 20 mg/kg with biliary drainage group): 0%
detection rate of peptide toxins in blood ([1]; 24 h after ingestion, 60 mg/kg with biliary drainage group): 0%
detection rate of peptide toxins in blood ([1]; 36 h after ingestion, 20 mg/kg with biliary drainage group): 0%
detection rate of peptide toxins in blood ([1]; 36 h after ingestion, 60 mg/kg with biliary drainage group): 0%
detection rate of peptide toxins in blood ([1]; 48 h after ingestion, 20 mg/kg with biliary drainage group): 0%
detection rate of peptide toxins in blood ([1]; 48 h after ingestion, 60 mg/kg with biliary drainage group): 0%
time at which toxins were detected in plasma after ingestion ([1]; beagles with biliary drainage, oral Amanita exitialis): 30 min
Vd/F ([1]; male, beagle, dog, 60 mg/kg Amanita exitialis oral, biliary drainage, plasma, mean ± SD, read-out: Vz/F): 0.68 ± 0.48 L/kg
detection rate of peptide toxins in urine ([2]; 0-1 d, 60 mg/kg with biliary drainage group): 100%
daily amount excreted in urine ([2]; 0–1 days, 20 mg/kg with biliary drainage group): 0.0147 mg
percentage of total urine excretion excreted daily ([2]; 0–1 days, 20 mg/kg with biliary drainage group, 20 mg/kg): more than 90%
percentage of total urine excretion excreted daily ([2]; 0–1 days, 20 mg/kg with biliary drainage group, listed as α-Amanitin, 20 mg/kg): 96.3%
daily amount excreted in urine ([2]; 0–1 days, 60 mg/kg with biliary drainage group): 0.0213 mg
percentage of total urine excretion excreted daily ([2]; 0–1 days, 60 mg/kg with biliary drainage group, 60 mg/kg): more than 90%
percentage of total urine excretion excreted daily ([2]; 0–1 days, 60 mg/kg with biliary drainage group, listed as α-Amanitin, 60 mg/kg): 90.9%
Total (accumulated) amount excreted in urine [2, 5]: 0.0151 mg
percentage of total urine excretion, Total [2, 5]: 100%
Total (accumulated) amount excreted in urine [2, 6]: 0.0222 mg
percentage of total urine excretion, Total [2, 6]: 100%
time within which toxin was detected in urine [2, 5]: two
time within which toxin was detected in urine [2, 6]: three
detection rate of peptide toxins in urine ([2]; 1-2 d, 20 mg/kg with biliary drainage group): 100%
detection rate of peptide toxins in urine ([2]; 1-2 d, 60 mg/kg with biliary drainage group): 100%
daily amount excreted in urine [2, 7]: 0.0004 mg
percentage of total urine excretion excreted daily [2, 7]: 3.7%
daily amount excreted in urine [2, 8]: 0.0007 mg
percentage of total urine excretion excreted daily [2, 8]: 8.9%
detection rate of peptide toxins in urine ([2]; 2-3 d, 20 mg/kg with biliary drainage group): 0%
toxin content in urine ([2]; 2-3d, 20 mg/kg with biliary drainage group, mean ± SD): 0 µg/L
detection rate of peptide toxins in urine ([2]; 2-3 d, 60 mg/kg with biliary drainage group): 50%
daily amount excreted in urine [2, 9]: 0(0%) mg
percentage of total urine excretion excreted daily [2, 9]: 0(0%)
daily amount excreted in urine [2, 10]: 0.0001 mg
percentage of total urine excretion excreted daily [2, 10]: 0.2%
detection rate of peptide toxins in urine [2, 11]: 0%
toxin content in urine [2, 11]: 0 µg/L
detection rate of peptide toxins in urine [2, 12]: 0%
toxin content in urine [2, 12]: 0 µg/L
daily amount excreted in urine [2, 13]: 0(0%) mg
percentage of total urine excretion excreted daily [2, 13]: 0(0%)
daily amount excreted in urine [2, 14]: 0(0%) mg
percentage of total urine excretion excreted daily [2, 14]: 0(0%)
share of total urine excretion in the 0–2-day urine ([2]; beagles with biliary drainage, both dose groups): more than 95%
